# Data from patent US20210171948A1, “COMPOSITIONS AND METHODS FOR TARGETING GLYPICAN-2 IN THE TREATMENT OF CANCER” (Shepherd Therapeutics, Inc., priority 2019, published 2021).
# d = 2'-deoxy (DNA); r = 2'-OH (RNA)
# How the values were obtained:
# GPC2 mRNA [1] = assay: GPC2 mRNA knockdown by qPCR in TC-32 Ewing's sarcoma cells transfected with siRNA (Example 2); type: cell-based, human; settings: TC-32 cells; 72 hours post transfection
# Description: siRNAs 1-5 from Table 7 were diluted to 40 nM in OptiMEM media and mixed in a 1:3 ratio (weight by volume) with RNAiMAX. This was incubated for 15 minutes at room temperature and dispensed onto cells plated in a 6 well tissue culture plate. Total RNA samples were collected at either 72 hours post transfection to compare knockdown efficiency (FIG. 2A), or at 24, 48, 72 or 96 hours post transfection to determine the extent of GPC2 mRNA knockdown over time (FIG. 2B). Expression levels of mRNA of GPC2 were measured in these samples using primers specific for GPC2 obtained commercially from Thermofisher (Carlsbad, Calif.) and standard qPCR technique.
# GPC2 mRNA [2] = assay: GPC2 mRNA knockdown in cell lines of the cisplatin experiment (Example 5); type: cell-based, human
# Description: (§1) GPC2 mRNA was reduced using the indicated siRNAs and changes in cell viability were assessed in multiple cancer cell lines, in combination with Cisplatin treatment. Cells were transfected with either a scrambled control siRNA or with GPC2 siRNA sequences 3 or 5 from Table 7 using the RNAiMAX Lipofectamine kit (Invitrogen, Carlsbad, Calif.), as previously described, in either in 96 well (for viability assays) or 6 well format (for total RNA). Cisplatin was added at increasing concentrations (0 to 30 uM) to transfected cells at 24 hours post transfection. Following a 72 hour incubation period, cell viability was measured using Cell Titer Glo 2.0. Total RNA samples were also isolated to measure knockdown efficiency.
# COV362 cells = assay: Cisplatin IC50 in siRNA-transfected cells, Cell Titer Glo 2.0 viability (Example 5); type: cell-based
# Description: as §1
# KELLY cells [3] = assay: as above; type: cell-based
# Description: as §1
# RH30 cells = assay: as above; type: cell-based
# Description: as §1
# SK-N-BE2 cells [4] = assay: as above; type: cell-based
# Description: as §1
# SKNAS cells [5] = assay: as above; type: cell-based
# Description: as §1
# TC71 cells = assay: as above; type: cell-based
# Description: as §1
# CHLA-136 cells = assay: Carboplatin IC50 in siRNA-transfected cells, Cell Titer Glo 2.0 viability (Example 6); type: cell-based
# Description: (§2) GPC2 mRNA expression was reduced using the indicated siRNAs and changes in cell viability were assessed in multiple neuroblastoma cell lines. Cells were transfected with either a control siRNA or with GPC2 siRNA sequences 3, 5 or 7 from Table 7 using the RNAiMAX Lipofectamine kit (Invitrogen, Carlsbad, Calif.) as previously described in 96 wells for viability assays. Carboplatin was added at increasing concentrations (0 to 150 uM) to transfected cells at 24 hours post transfection. Following a 72 hour incubation period, viability measurements were made using Cell Titer Glo 2.0.
# CHLA-172 cells = assay: as above; type: cell-based
# Description: as §2
# KELLY cells [6] = assay: as above; type: cell-based
# Description: as §2
# SKNAS cells [7] = assay: as above; type: cell-based
# Description: as §2
# CHLA-90 cells = assay: Topotecan IC50 in siRNA-transfected cells, Cell Titer Glo 2.0 viability (Example 10); type: cell-based
# Description: as §2, with “reduced” for “reduced using the indicated siRNAs”, “sequences” for “sequences 3,”, “Topotecan” for “Carboplatin”, “(0-5” for “(0 to 150”
# CHP212 cells = assay: as above; type: cell-based
# Description: as §2, with “reduced” for “reduced using the indicated siRNAs”, “sequences” for “sequences 3,”, “Topotecan” for “Carboplatin”, “(0-5” for “(0 to 150”
# KELLY cells [8] = assay: as above; type: cell-based
# Description: as §2, with “reduced” for “reduced using the indicated siRNAs”, “sequences” for “sequences 3,”, “Topotecan” for “Carboplatin”, “(0-5” for “(0 to 150”
# SH-SY5Y cells = assay: as above; type: cell-based
# Description: as §2, with “reduced” for “reduced using the indicated siRNAs”, “sequences” for “sequences 3,”, “Topotecan” for “Carboplatin”, “(0-5” for “(0 to 150”
# SK-N-BE2 cells [9] = assay: as above; type: cell-based
# Description: as §2, with “reduced” for “reduced using the indicated siRNAs”, “sequences” for “sequences 3,”, “Topotecan” for “Carboplatin”, “(0-5” for “(0 to 150”
# SKNAS cells [10] = assay: as above; type: cell-based
# Description: as §2, with “reduced” for “reduced using the indicated siRNAs”, “sequences” for “sequences 3,”, “Topotecan” for “Carboplatin”, “(0-5” for “(0 to 150”
# [11] = system: spheroids from CHP212, SKNAS, SK-N-BE2 and CHLA90 neuroblastoma cells; assay: Viability of established spheroid cultures after siRNA transfection (Example 11); type: cell-based; settings: 96 hour following transfection; where GPC2 knockdown was observed (FIG. 7B)
# Description: The effect of siRNA mediated GPC2 mRNA knockdown was also assessed on established spheroid cultures. Spheroids were established by seeding cells in low attachment plates and culturing for 96 hours. Spheroids were transfected with either a scrambled control siRNA or with GPC2 siRNA of sequence 5 or 7 from Table 7, using the RNAiMAX Lipofectamine kit (Invitrogen, Carlsbad, Calif.) as previously described. At the 96 hour time point following transfection, the degree of GPC2 mRNA knockdown (FIG. 7A) as well as spheroid viability (FIG. 7B) was measured.
substance,measurement,setting,value
"GPC2 siRNA 5: siRNA duplex: sense CUCAGUAGCCCAGCACUCU[dT][dT] (SEQ ID NO: 211), anti-sense AGAGUGCUGGGCUACUGAG[dT][dT] (SEQ ID NO: 212) (sense CUCAGUAGCCCAGCACUCUTT; antisense AGAGUGCUGGGCUACUGAGTT; sugars from the 5' end r19 d2, backbone not given here; listed as Homo sapiens)",Degree of GPC2 knockdown among siRNA sequences 1-5,GPC2 mRNA [1],greatest degree of GPC2 knockdown
same,% GPC2 knockdown,GPC2 mRNA [2]; CHLA-90 (Neuroblastoma),55%
same,% GPC2 knockdown,GPC2 mRNA [2]; CHLA-136 (Neuroblastoma),35%
same,% GPC2 knockdown,GPC2 mRNA [2]; CHLA-172 (Neuroblastoma),8%
same,% GPC2 knockdown,GPC2 mRNA [2]; CHP212 (Neuroblastoma),70%
same,% GPC2 knockdown,GPC2 mRNA [2]; COV362 (Ovarian cancer),89%
same,% GPC2 knockdown,GPC2 mRNA [2]; GIST-T1 (Gastrointestinal Stromal),75%
same,% GPC2 knockdown,GPC2 mRNA [2]; KELLY (Neuroblastoma),75%
same,% GPC2 knockdown,GPC2 mRNA [2]; RH30 (Rhabdomyosarcoma),86%
same,% GPC2 knockdown,GPC2 mRNA [2]; RH41 (Rhabdomyosarcoma),70%
same,% GPC2 knockdown,GPC2 mRNA [2]; SH-SY5Y (Neuroblastoma),75%
same,% GPC2 knockdown,GPC2 mRNA [2]; SK-N-BE2 (Neuroblastoma),68%
same,% GPC2 knockdown,GPC2 mRNA [2]; SKNAS (Neuroblastoma),70%
same,% GPC2 knockdown,GPC2 mRNA [2]; SNU16 (Gastric carcinoma),52%
same,% GPC2 knockdown,GPC2 mRNA [2]; TC32 (Ewing's sarcoma),75%
same,% GPC2 knockdown,GPC2 mRNA [2]; TC71 (Ewing's sarcoma),60%
same,% GPC2 knockdown,GPC2 mRNA [2]; TOV112D (Ovarian cancer),86%
same,Data Summary: effect of knockdown on sensitivity to cisplatin,COV362 cells; COV362,does not increase
same,IC50,"COV362 cells; COV362 cells transfected with the labelled siRNA, cisplatin added 24 hours post transfection, 72 hour incubation",18000 nM
same,Data Summary: effect of knockdown on sensitivity to cisplatin,KELLY cells [3]; KELLY,increases sensitivity to
same,IC50,"KELLY cells [3]; KELLY cells transfected with the labelled siRNA, cisplatin added 24 hours post transfection, 72 hour incubation",2500 nM
same,Data Summary: effect of knockdown on sensitivity to cisplatin,RH30 cells; RH30,does not increase
same,IC50,"RH30 cells; RH30 cells transfected with the labelled siRNA, cisplatin added 24 hours post transfection, 72 hour incubation",2500 nM
same,Data Summary: effect of knockdown on sensitivity to cisplatin,SK-N-BE2 cells [4]; SK-N-BE2,increases sensitivity to
same,IC50,"SK-N-BE2 cells [4]; SK-N-BE2 cells transfected with the labelled siRNA, cisplatin added 24 hours post transfection, 72 hour incubation",3000 nM
same,Data Summary: effect of knockdown on sensitivity to cisplatin,SKNAS cells [5]; SKNAS,increases sensitivity to
same,IC50,"SKNAS cells [5]; SKNAS cells transfected with the labelled siRNA, cisplatin added 24 hours post transfection, 72 hour incubation",9000 nM
same,Data Summary: effect of knockdown on sensitivity to cisplatin,TC71 cells; TC71,does not increase
same,IC50,"TC71 cells; TC71 cells transfected with the labelled siRNA, cisplatin added 24 hours post transfection, 72 hour incubation",1400 nM
same,Data Summary: effect of knockdown on sensitivity to carboplatin,CHLA-136 cells; CHLA-136,not increase sensitivity
same,IC50,"CHLA-136 cells; CHLA-136 cells transfected with the labelled siRNA, carboplatin added 24 hours post transfection, 72 hour incubation",36000 nM
same,Data Summary: effect of knockdown on sensitivity to carboplatin,CHLA-172 cells; CHLA-172,increases sensitivity to
same,IC50,"CHLA-172 cells; CHLA-172 cells transfected with the labelled siRNA, carboplatin added 24 hours post transfection, 72 hour incubation",100000 nM
same,Data Summary: effect of knockdown on sensitivity to carboplatin,KELLY cells [6]; KELLY,KD with sequence 5 increases
same,IC50,"KELLY cells [6]; KELLY cells transfected with the labelled siRNA, carboplatin added 24 hours post transfection, 72 hour incubation",9000 nM
same,Data Summary: effect of knockdown on sensitivity to carboplatin,SKNAS cells [7]; SKNAS,increases sensitivity to
same,IC50,"SKNAS cells [7]; SKNAS cells transfected with the labelled siRNA, carboplatin added 24 hours post transfection, 72 hour incubation",15300 nM
same,Data Summary: effect of knockdown on sensitivity to topotecan,CHLA-90 cells; CHLA-90,not increase sensitivity to topotecan
same,IC50,"CHLA-90 cells; CHLA-90 cells transfected with the labelled siRNA, topotecan added 24 hours post transfection, 72 hour incubation",110 nM
same,Data Summary: effect of knockdown on sensitivity to topotecan,CHP212 cells; CHP212,not increase sensitivity to topotecan
same,IC50,"CHP212 cells; CHP212 cells transfected with the labelled siRNA, topotecan added 24 hours post transfection, 72 hour incubation",10 nM
same,Data Summary: effect of knockdown on sensitivity to topotecan,KELLY cells [8]; KELLY,not increase sensitivity to topotecan
same,IC50,"KELLY cells [8]; KELLY cells transfected with the labelled siRNA, topotecan added 24 hours post transfection, 72 hour incubation",60 nM
same,Data Summary: effect of knockdown on sensitivity to topotecan,SH-SY5Y cells; SH-SY5Y,not increase sensitivity to topotecan
same,IC50,"SH-SY5Y cells; SH-SY5Y cells transfected with the labelled siRNA, topotecan added 24 hours post transfection, 72 hour incubation",40 nM
same,Data Summary: effect of knockdown on sensitivity to topotecan,SK-N-BE2 cells [9]; SK-N-BE2,not increase sensitivity to topotecan
same,IC50,"SK-N-BE2 cells [9]; SK-N-BE2 cells transfected with the labelled siRNA, topotecan added 24 hours post transfection, 72 hour incubation",10 nM
same,Data Summary: effect of knockdown on sensitivity to topotecan,SKNAS cells [10]; SKNAS,increases sensitivity to topotecan
same,IC50,"SKNAS cells [10]; SKNAS cells transfected with the labelled siRNA, topotecan added 24 hours post transfection, 72 hour incubation",20 nM
same,Viability of established spheroids,[11],a decrease in spheroid viability was also seen
